Results on one molecule are retold here after ChEMBL document CHEMBL4373743, “Selective apoptosis-inducing activity of synthetic hydrocarbon-stapled SOS1 helix with d-amino acids in H358 cancer cells expressing KRASG12C” (Eur J Med Chem, 2020).

The subject of experiment [1] is GTPase KRas (Homo sapiens), P01116 [G12C]. In words: Binding affinity to biotinylated N-terminal His6-tagged recombinant KRAS G12C mutant (unknown origin) assessed as dissociation constant by BLI method.
Experiment [2] shares this test system. As to the kind of experiment: Inhibition of mant-GDP bound N-terminal His6-tagged recombinant KRAS G12C mutant (unknown origin) by fluorescence based assay.
The test system of experiment [3] is A549. In words: Induction of cell cycle arrest in human A549 cells harboring KRAS G12S mutant assessed as accumulation at G2/M phase at 10 to 40 uM incubated for 24 hrs by PI staining based flow cytometric analysis. In kind it is functional.
In experiment [4] the test system is NCI-H358. As to the kind of experiment: Induction of cell cycle arrest in human NCI-H358 cells harboring KRAS G12C mutant assessed as reduction in cyclin B1 protein expression at 40 uM incubated for 24 hrs by Western blot analysis. In kind it is functional, cell-based.
Experiment [5] deals with NCI-H358. In words: Induction of cell cycle arrest in human NCI-H358 cells harboring KRAS G12C mutant assessed as reduction in CDK1 protein expression at 40 uM incubated for 24 hrs by Western blot analysis. In kind it is functional, cell-based.
Experiment [6] concerns NCI-H358. In words: Induction of apoptosis in human NCI-H358 cells harboring KRAS G12C mutant assessed as viable cells at 2.5 uM incubated for 24 hrs by Annexin V-FITC/PI staining based flow cytometric analysis (reference value: 67.2%). In kind it is functional. To be noted: NCI-H358, 24 h, read-out: Activity.
The test system of experiment [7] is NCI-H358. As to the kind of experiment: Induction of apoptosis in human NCI-H358 cells harboring KRAS G12C mutant assessed as necrotic cells at 10 uM incubated for 24 hrs by Annexin V-FITC/PI staining based flow cytometric analysis (reference value: 0.28%). In kind it is functional.
Experiment [8] deals with A549. As to the kind of experiment: Induction of apoptosis in human A549 cells harboring KRAS G12S mutant assessed as late apoptotic cells at 2.5 uM incubated for 24 hrs by Annexin V-FITC/PI staining based flow cytometric analysis (reference value: 25.4%). In kind it is functional.
For experiment [9], the system named is A549. As to the kind of experiment: Induction of apoptosis in human A549 cells harboring KRAS G12S mutant assessed as necrotic cells at 2.5 uM incubated for 24 hrs by Annexin V-FITC/PI staining based flow cytometric analysis (reference value: 0.16%). In kind it is functional.
For experiment [10], the system named is NCI-H358. As to the kind of experiment: Induction of apoptosis in human NCI-H358 cells harboring KRAS G12C mutant assessed as increase in bax protein level at 40 uM incubated for 24 hrs by Western blot analysis. In kind it is functional, cell-based.
For experiment [11], the system named is NCI-H358. In words: Induction of apoptosis in human NCI-H358 cells harboring KRAS G12C mutant assessed as increase in caspase3 protein level at 40 uM incubated for 24 hrs by Western blot analysis. In kind it is functional, cell-based. (A western blot detects proteins with antibodies after separation by electrophoresis.)
The subject of experiment [12] is A549. As to the kind of experiment: Induction of apoptosis in human A549 cells harboring KRAS G12S mutant assessed as increase in caspase3 protein level at 40 uM incubated for 24 hrs by Western blot analysis. In kind it is functional, cell-based.
For experiment [13], the system named is A549. In words: Induction of apoptosis in human A549 cells harboring KRAS G12S mutant assessed as decrease in bcl2 protein level at 40 uM incubated for 24 hrs by Western blot analysis. In kind it is functional, cell-based.
Experiment [14] relates to NCI-H358. As to the kind of experiment: Induction of cell cycle arrest in human NCI-H358 cells harboring KRAS G12C mutant assessed as accumulation at G2/M phase incubated for 24 hrs by PI staining based flow cytometric analysis. In kind it is functional. A general note: A flow cytometer gives signals particle by particle.

Each structure is given as a SMILES string. The source made the active and inactive calls. The calls are words filed in the database; no cut-off is given here. Bridge positions count the residues as written; N and C are the ends. Square brackets hold non-standard residues; d marks the D form. Peptide text beside a SMILES is read from it. S5 = C=CCCC[C@](C)(N)C(=O)O

GTPase KRas (Homo sapiens), P01116 [G12C], sequence (P01116 whole entry G12C): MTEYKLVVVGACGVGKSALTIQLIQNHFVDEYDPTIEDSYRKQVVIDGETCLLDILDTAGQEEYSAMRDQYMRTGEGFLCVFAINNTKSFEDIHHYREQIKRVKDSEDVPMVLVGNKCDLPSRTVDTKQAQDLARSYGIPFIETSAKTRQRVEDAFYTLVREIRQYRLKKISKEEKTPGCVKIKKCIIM

On to `CC[C@H](C)[C@H](NC(=O)CNC(=O)[C@H](Cc1ccccc1)NC(=O)[C@H](Cc1ccccc1)NC(=O)[C@H](CCCNC(=N)N)NC(=O)[C@H](CCCNC(=N)N)NC(C)=O)C(=O)N[C@@]1(C)CCC/C=C\CCC[C@@](C)(C(=O)N[C@@H](CC(C)C)C(=O)N[C@@H](CCCCN)C(=O)N[C@H](C(=O)N[C@@H](CCC(=O)O)C(=O)N[C@@H](CCC(=O)O)C(=O)NCC(=O)N[C@@H](CC(N)=O)C(=O)O)[C@@H](C)O)NC(=O)[C@H](CC(N)=O)NC(=O)[C@H](CC(=O)O)NC(=O)[C@H]([C@@H](C)O)NC(=O)[C@H](CC(C)C)NC(=O)[C@H](CC(=O)O)NC1=O` (Ac-RRFFGI[S5]DLTDN[S5]LKTEEGN-OH; staple (Z) 7-13), for which the Kdiss in experiment [1] came out at 6.37 ×10⁻³ /s. The inhibition entry in experiment [2] is “Dose-dependent effect”. Moreover, the outcome with A549 [3], in the experiment with A549 [12] and in the experiment on A549 [13] was inactive. In addition, the outcome in the experiment on NCI-H358 [4], in the experiment with NCI-H358 [5], in the experiment with NCI-H358 [10] and in the experiment on NCI-H358 [11] was Active. In the experiment on NCI-H358 [6], the viability at 2.5 µM was determined as 62.7%. Besides, the Activity in the experiment with NCI-H358 [7] was 0.26%; in the experiment on A549 [8], 38.5%; in the experiment on A549 [9], 0.4%; in the experiment with NCI-H358 [14], “Dose-dependent effect”.
